US20170058314A1, “NOVEL METHODOLOGY FOR IDENTIFYING ANTI-PERSISTER ACTIVITY AND ANTIMICROBIAL SUSCEPTIBILITY FOR BORRELIA BURGDORFERI AND OTHER BACTERIA” (priority 2014, published 2017)
Converted amounts (≈) assume the structure as drawn.

Columns and labels:
[1] = system: B. burgdorferi (growing, strain B31); test: MIC determination, standard microdilution method; type: cell-based, Borrelia burgdorferi; conditions: for MIC: Borreliella burgdorferi, growing B. burgdorferi, read-out: MIC
[2] = system: log phase and stationary phase B. burgdorferi culture; test: Antibiotic exposure assay, SYBR Green I/PI (drugs alone and combinations); conditions: for viability at 10 µg/mL: Borreliella burgdorferi, 168 h, read-out: Live Cell % (residual viable B. burgdorferi), ten-day-old stationary phase culture enriched with micro-colonies, 10 μg/mL each drug, 7 days
Experimental: (§1) To qualitatively determine the effect of antibiotics, 10 μL of each compound from the pre-diluted plate or pre-diluted stock was added to stationary phase B. burgdorferi culture in the 96-well plate. The final volume per well was adjusted to 100 μL at a concentration of 10 μg/mL for each antibiotic. Plates were sealed and placed in a 33° C. incubator for 7 days. The SYBR Green I/PI viability assay was used to assess the live and dead cells after antibiotic exposure as described (Feng, Wang, Shi, et al., 2014). Briefly, 10 μL of SYBR Green I (10,000×stock, Invitrogen) was mixed with 30 μL propidium iodide (PI, 20 mM) into 1.0 mL of sterile dH2O. Then, 10 μL of staining mixture was added to each well and mixed thoroughly. The plates were incubated at room temperature in the dark for 15 minutes followed by plate reading at excitation wavelength at 485 nm and the fluorescence intensity at 535 nm (green emission) and 635 nm (red emission) in microplate reader (HTS 7000 plus Bio Assay Reader, PerkinElmer Inc., USA). With least-square fitting analysis, the regression equation and regression curve of the relationship between percentage of live bacteria and green/red fluorescence ratios was obtained. The regression equation was used to calculate the percentage of live cells in each well of the 96-well plate.
To qualitatively determine the effect of antibiotics, 10 μL of each compound (final concentration 50 μM) from the pre-diluted plate or pre-diluted stock was added to round body form or stationary phase B. burgdorferi culture in the 96-well plate. The final volume per well was adjusted to 100 μL. Plates were sealed and placed in a 33° C. incubator for 7 days. The SYBR Green I/PI viability assay was used to assess the live and dead cells after antibiotic exposure as described (Feng, Wang, Shi, et al., 2014). Briefly, 10 μL of SYBR Green I (10,000×stock, Invitrogen) was mixed with 30 μL propidium iodide (PI, 20 mM, Sigma-Aldrich) into 1.0 mL of sterile dH2O. Then, 10 μL staining mixture was added to each well and mixed thoroughly. The plates were incubated at room temperature in the dark for 15 minutes followed by plate reading at excitation wavelength at 485 nm and the fluorescence intensity at 535 nm (green emission) and 635 nm (red emission) in microplate reader (HTS 7000 plus Bio Assay Reader, PerkinElmer Inc., USA). With least-square fitting analysis, the regression equation and regression curve of the relationship between percentage of live and dead bacteria as shown in green/red fluorescence ratios was obtained. The regression equation was used to calculate the percentage of live cells in each well of the 96-well plate.
Round body form and ten day old stationary phase (in brackets) B. burgdorferi culture was treated with 10 μg/mL drugs or their combinations for 7 days. Residual viable B. burgdorferi was calculated according to the regression equation and ratio of Green/Red fluorescence obtained by SYBR Green I/PI assay as described (Feng, Wang, Shi, et al., 2014). Direct microscopy counting was employed to rectify the results of the SYBR Green I/PI assay. […] Abbreviation: Dox, doxcycline; CefP, cefoperazone; DAP, daptomycin; CefM, cefmetazole; Scp, sulfachlorpyridazine; Art, artemisinin; Nft, nitrofurantoin.

[3] = system: B. burgdorferi log and stationary phase cultures; test: epi-fluorescence microscope counting after antibiotic exposure (persister frequency, planktonic forms); type: cell-based, Borrelia burgdorferi
Experimental: Specimens were examined on a Nikon Eclipse E800 microscope equipped with differential interference contrast (DIC) and epi-fluorescence illumination, and recorded with a Spot slider color camera. Cell proliferation assays were performed by direct counting using a bacterial counting chamber (Hausser Scientific Partnership) and DIC microscopy. SYBR Green I/PI assay was performed to assess the viability of B. burgdorferi. The ratio of live (green) and dead (red) B. burgdorferi was calculated by counting these cells using a bacterial counting chamber and epi-fluorescence microscopy. The three representative images of every sample were captured for quantitative analysis. Image Pro-Plus software was applied for measuring the biomass (fluorescence intensity) of different forms (spirochetes, round body, and microcolony) of B. burgdorferi as previously described (Shopov and Williams, 2000).
as §1
Therefore, the frequency of B. burgdorferi persisters in log phase and stationary phase cultures was assessed using the SYBR Green I/PI viability assay after exposure of the cultures to antimicrobials. E. coli culture was used as a control after exposure to antibiotics to validate the SYBR Green I/PI viability assay for persister frequency assessment.

[4] = system: log phase E. coli culture; test: E. coli control, persister frequency by microscope counting after SYBR Green I/PI staining; type: cell-based, Escherichia coli; conditions: three hour log phase E. coli, 50 μg/mL amoxicillin for 3 hours
[5] = system: log phase E. coli culture; test: E. coli control, persister frequency by standard plate colony count assay; type: cell-based, Escherichia coli; conditions: three hour log phase E. coli, 50 μg/mL amoxicillin for 3 hours
[6] = system: stationary phase B. burgdorferi; test: Subculture test of drug-treated stationary phase B. burgdorferi; type: cell-based, Borrelia burgdorferi; conditions: for G/R ratio immediately after treatment / G/R ratio after 7 day subculture / G/R ratio after 15 day subculture / Spirochetes after 7 day subculture (microscope counting) / Spirochetes after 15 day subculture (microscope counting): 10 μg/mL; for G/R ratio immediately after treatment: 7 days; for G/R ratio after 7 day subculture / G/R ratio after 15 day subculture / Spirochetes after 7 day subculture (microscope counting) / Spirochetes after 15 day subculture (microscope counting): 7 days treatment, then subculture; for viability at 10 µg/mL: Borreliella burgdorferi, 168 h, read-out: Residual viable cells (epifluorescence microscope counting)
Experimental: Seven-day-old B. burgdorferi culture (1×10^7 spirochetes/mL) (500 μL) was treated with drugs or drug combinations in Eppendorf tubes. After incubation at 33° C. for 7 days without shaking, the cells were collected by centrifugation and rinsed with 1 mL fresh BSK-H medium followed by resuspension in 500 μL fresh BSK-H medium without antibiotics. Then 50 μL of cell suspension was transferred to 1 mL fresh BSK-H medium for subculture at 33° C. for 2 weeks. Cell proliferation was assessed using SYBR Green I/PI assay and bacterial counting chamber (Hausser Scientific Partnership) by microscopy as described above.

[7] = system: round body form of B. burgdorferi; test: SYBR Green I/PI assay on amoxicillin-induced round body form; conditions: for viability at 50 µM: Borreliella burgdorferi, 168 h, read-out: Residual viable cells (SYBR Green I/PI assay); for Ratios of green/red fluorescence, Primary screening / Ratios of green/red fluorescence, Rescreening (first column) / Ratios of green/red fluorescence, Rescreening (second column): round body form, 50 μM
[8] = system: stationary phase B. burgdorferi persisters (strain B31); test: NCI compound library screen, SYBR Green I/PI assay (plate reader); conditions: for viability at 20 µM: read-out: Residual viable cells (%) 20 μM (SYBR Green I/PI assay), 20 μM, seven day old stationary phase, 7 days
[9] = system: stationary phase B. burgdorferi persisters (strain B31); test: NCI compound library rescreen, epifluorescence microscope counting; conditions: Borreliella burgdorferi, 168 h; for viability at 20 µM: read-out: Residual viable cells (%) 20 μM (epifluorescence microscope counting)
[10] = system: stationary phase B. burgdorferi persisters (strain B31); test: SYBR Green I/PI viability assay (plate reader), FDA-approved drug library screen; conditions: for Ratio of Green/Red fluorescence, Primary screening / Ratio of Green/Red fluorescence, Rescreening (first column) / Ratio of Green/Red fluorescence, Rescreening (second column): 7 days, stationary phase; for viability at 50 µM: Borreliella burgdorferi, 168 h, read-out: Residual viable cells (regression equation, SYBR Green I/PI assay)
[11] = system: stationary phase B. burgdorferi persisters (strain B31); test: epifluorescence microscope counting after SYBR Green I/PI staining, FDA drug screen; conditions: for viability at 50 µM: Borreliella burgdorferi, 168 h, read-out: Residual viable cells (epifluorescence microscope counting)
[12] = system: round body form of B. burgdorferi; conditions: 50 µM
[13] = system: round body form of B. burgdorferi; test: Subculture test of drug-treated round body form
Experimental: For induction of round body form of B. burgdorferi, B. burgdorferi spirochetes (1×10^5 spirochetes/mL) were cultured in BKS-H medium for 6 days without shaking. After the 6-day incubation, amoxicillin at a final concentration of 50 μg/mL was added to the culture for round body form induction. After 72 h induction at 33° C., the round body forms of B. burgdorferi were examined by the microscopy. The round body cells (100 μL) were transferred to 96-well tissue culture microplates for evaluation of the effects of antibiotic treatment.

[14] = system: B. burgdorferi (growing, strain B31); conditions: actively growing B. burgdorferi; Feng, Wang, Shi, et al., 2014; cited from earlier work
[15] = read-out: Activity against persisters (residual viable cell percentage)
[16] = read-out: Residual viable cells (%) 50 μM (epifluorescence microscope counting)
[17] = read-out: Residual viable cells (epifluorescence microscope counting)
[18] = 50 μM, 7-day old stationary phase cells treated for 7 days
[19] = 10 μg/mL drugs or combinations, 7 days
[20] = 10 μg/mL, 7 days treatment, then subculture

Row | SMILES | MIC [1] | viability at 10 µg/mL [2] | G/R ratio immediately after treatment [6] | G/R ratio after 7 day subculture [6] | G/R ratio after 15 day subculture [6] | Spirochetes after 7 day subculture (microscope counting) [6] | Spirochetes after 15 day subculture (microscope counting) [6] | viability at 10 µg/mL [6] | viability at 50 µM [7] | Ratios of green/red fluorescence, Primary screening ([7]; 7 days) | Ratios of green/red fluorescence, Rescreening (first column) ([7]; 7 days) | Ratios of green/red fluorescence, Rescreening (second column) ([7]; 7 days) | viability at 20 µM ([8]; Borreliella burgdorferi, 168 h) | viability at 50 µM [9, 15] | viability at 20 µM [9] | viability at 50 µM [9, 16] | viability at 50 µM [9, 17] | Ratio of Green/Red fluorescence, Primary screening ([10]; 50 μM) | Ratio of Green/Red fluorescence, Rescreening (first column) ([10]; 50 μM) | Ratio of Green/Red fluorescence, Rescreening (second column) ([10]; 50 μM) | other results
1 | CC1(C)S[C@@H]2[C@H](NC(=O)[C@H](N)c3ccc(O)cc3)C(=O)N2[C@H]1C(=O)O [Amoxicillin] | ≤ 0.25 µg/mL | 75% | 7.16 | 6.32 | 7.23 | 1 × 10^6 | 6 × 10^6 | 80% | 46% | 6.53 | 6.59 | 6.52 | 77% | 77% | 77% | 77% | 77% | 7.98 | 7.86 | 7.82 | persister frequency (percentage of live cells after antibiotic treatment, in brackets) ([3]; 3-day log phase culture): (9.6%); persister frequency (in brackets) ([3]; 7-day stationary phase culture): (25%); persister frequency (in brackets) ([3]; 10-day stationary phase culture): (~27%); E. coli control Persister frequency (epi-fluorescence microscope counting after SYBR Green I/PI staining) [4]: 4.4%; E. coli control Persister frequency (epi-fluorescence microscope counting after SYBR Green I/PI staining) ([4]; listed as amoxicillin): 4.4%; E. coli control Persister frequency (standard plate colony count assay) [5]: 0.9%; E. coli control Persister frequency (standard plate colony count assay) ([5]; listed as amoxicillin): 0.9%; Spirochetes after 15 day subculture (microscope counting) ([6]; listed as amoxicillin): ~5×10^6; Residual viable cells (SYBR Green I/PI assay) ([8]; 50 μM, seven day old stationary phase culture, 7 days): 71%; viability at 50 µM [10]: 76%; viability at 50 µM [11]: 76%
2 | CO[C@@H]1[C@@H](O[C@@H]2O[C@H](C)[C@@H](O[C@H]3C[C@@](C)(O)[C@@H](OC(=O)CC(C)C)[C@H](C)O3)[C@H](N(C)C)[C@H]2O)[C@@H](CC=O)C[C@@H](C)C(=O)/C=C/[C@@H]2O[C@@H]2C[C@@H](C)OC(=O)C[C@H]1OC(C)=O [Carbomycin] |  |  |  |  |  |  |  |  |  |  |  |  |  |  |  |  |  | 6.37 | 6.81 | 6.32 | sensitivity of log phase / multiplying B. burgdorferi (words, FIG. 12) ([1]; MIC test): very sensitive; Residual viable cells (SYBR Green I/PI assay) [12]: 43%; Residual viable cells (regression equation, SYBR Green I/PI assay) [10, 18]: 37%; Residual viable cells (epifluorescence microscope counting) [11, 18]: 41%
3 | CCCCCCCCCC(=O)N[C@@H](Cc1c[nH]c2ccccc12)C(=O)N[C@H](CC(N)=O)C(=O)N[C@@H](CC(=O)O)C(=O)N[C@@H]1C(=O)NCC(=O)N[C@@H](CCCN)C(=O)N[C@@H](CC(=O)O)C(=O)N[C@H](C)C(=O)N[C@@H](CC(=O)O)C(=O)NCC(=O)N[C@H](CO)C(=O)N[C@@H]([C@H](C)CC(=O)O)C(=O)N[C@@H](CC(=O)c2ccccc2N)C(=O)O[C@@H]1C [Daptomycin] | 12.5 to 25 µg/mL (≈ 7.71 to 15.4 µM) | 48% | 5.85 | 7.01 | 7.11 | 3.1 × 10^6 | 5 × 10^6 | 55% | 19% | 5.90 | 6.09 | 5.93 | 32% | 18% | 25% | 18% | 18% | 6.10 | 6.20 | 6.09 | Live cell %, ten day old stationary phase culture (in brackets) [2, 19]: 48%; Live Cell % (residual viable B. burgdorferi) ([2]; Borrelia burgdorferi, 7 days, 10 μg/mL): 52%; Spirochetes number After 10 day subculture [13, 20]: 5 × 10^5; Spirochetes number After 20 day subculture [13, 20]: 5 × 10^6; viability at 10 µg/mL ([13]; Borreliella burgdorferi, 168 h, read-out: Residual viable cells): 18%; MIC (previous study) [14]: 12.5 to 25 µg/mL; Live cell %, round body form [7, 19]: 17%; viability at 50 µM ([8]; Borreliella burgdorferi, 168 h, read-out: Residual viable cells (SYBR Green I/PI assay), 50 μM, seven day old stationary phase culture, 7 days): 23%; viability at 50 µM [10]: 28%; viability at 50 µM [11]: 35%
4 | N[C@@H](C(=O)N[C@@H]1C(=O)N2C(C(=O)O)=C(Cl)CC[C@H]12)c1ccccc1 [Loracarbef] |  |  |  |  |  |  |  |  |  | 6.35 | 6.25 | 6.24 |  |  |  |  |  |  |  |  | Residual viable cells (SYBR Green I/PI assay) [12]: 33%
